Assay results taken from ChEMBL document CHEMBL4000237, “Synthesis and biological evaluation of thiazole derivatives as novel USP7 inhibitors” (Bioorg Med Chem Lett, 2017).

Assays:
[1] = target: Ubiquitin carboxyl-terminal hydrolase 7 (Homo sapiens, UniProt Q93009); assay: Inhibition of USP7 (unknown origin) using Ub-Rho as substrate preincubated for 30 mins followed by substrate addition and subsequent incubation in dark for 3 hrs by fluorescence assay
HCT-116 = assay: Antiproliferative activity against human HCT116 cells expressing wild type p53 assessed as decrease in cell viability after 72 hrs by MTT assay; conditions: HCT-116, 72 h
NCI-H1299 = assay: Antiproliferative activity against p53 deficient human NCI-H1299 cells assessed as decrease in cell viability after 72 hrs by MTT assay; type: functional, cell-based; conditions: NCI-H1299, 72 h
[2] = Antiproliferative activity against human […] cells expressing p53 mutant assessed as decrease in cell viability after 72 hrs by MTT assay; type: functional, cell-based

Ubiquitin carboxyl-terminal hydrolase 7, sequence (Q93009 whole entry): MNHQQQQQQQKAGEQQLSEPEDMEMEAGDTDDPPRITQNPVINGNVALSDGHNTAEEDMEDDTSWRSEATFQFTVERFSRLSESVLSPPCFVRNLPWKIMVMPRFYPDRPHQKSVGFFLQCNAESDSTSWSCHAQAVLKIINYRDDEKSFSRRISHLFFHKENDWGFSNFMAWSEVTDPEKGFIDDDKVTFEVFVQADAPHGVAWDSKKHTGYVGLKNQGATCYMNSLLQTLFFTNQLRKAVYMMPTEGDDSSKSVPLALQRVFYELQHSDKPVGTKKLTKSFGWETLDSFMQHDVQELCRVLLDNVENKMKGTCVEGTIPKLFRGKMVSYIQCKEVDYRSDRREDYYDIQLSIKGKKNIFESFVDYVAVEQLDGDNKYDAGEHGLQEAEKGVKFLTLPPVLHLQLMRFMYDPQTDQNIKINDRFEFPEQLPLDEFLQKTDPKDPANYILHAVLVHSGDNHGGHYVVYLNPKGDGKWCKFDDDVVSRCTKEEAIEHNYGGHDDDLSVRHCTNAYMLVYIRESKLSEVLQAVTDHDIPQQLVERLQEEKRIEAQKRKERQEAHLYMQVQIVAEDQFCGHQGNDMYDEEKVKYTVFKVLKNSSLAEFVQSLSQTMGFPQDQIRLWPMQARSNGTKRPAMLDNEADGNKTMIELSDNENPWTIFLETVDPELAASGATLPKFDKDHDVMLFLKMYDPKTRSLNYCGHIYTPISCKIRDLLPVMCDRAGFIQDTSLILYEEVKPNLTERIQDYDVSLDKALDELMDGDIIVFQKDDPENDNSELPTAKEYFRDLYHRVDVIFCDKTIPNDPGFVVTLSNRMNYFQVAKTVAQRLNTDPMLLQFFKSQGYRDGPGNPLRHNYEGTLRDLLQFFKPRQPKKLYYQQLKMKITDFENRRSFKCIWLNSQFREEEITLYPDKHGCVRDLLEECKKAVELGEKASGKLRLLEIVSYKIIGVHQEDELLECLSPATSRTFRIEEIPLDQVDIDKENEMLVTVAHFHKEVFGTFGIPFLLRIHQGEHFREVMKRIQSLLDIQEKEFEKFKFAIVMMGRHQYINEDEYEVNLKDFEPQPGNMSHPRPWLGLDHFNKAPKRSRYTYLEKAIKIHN

SMILES | IC50 [1] | IC50 (HCT-116) | IC50 (NCI-H1299) | IC50 [2]
CC(=O)c1nc([N+](=O)[O-])c(Sc2ccc(Cl)c(Cl)c2)s1 | 18 µM | 16.4 µM | – | –
CC(=O)OC(C)c1nc([N+](=O)[O-])c(Sc2c(Cl)cncc2Cl)s1 (stereo unspecified) | > 50 µM | 24.8 µM | – | –
CC(=O)c1ncc(Sc2ccc(Cl)c(Cl)c2)s1 | > 50 µM | > 50 µM | – | –
CC(=O)c1nc([N+](=O)[O-])c(NCc2ccc(Cl)c(Cl)c2)s1 | > 50 µM | > 50 µM | – | –
CC(=O)c1nc([N+](=O)[O-])c(Sc2c(Cl)cncc2Cl)s1 | 0.67 µM | 8.45 µM | 6.21 µM | 11 µM
CC(OC(=O)c1ccccc1)c1nc([N+](=O)[O-])c(Sc2c(Cl)cncc2Cl)s1 (stereo unspecified) | > 50 µM | 12 µM | – | –
CCCC(=O)OC(C)c1nc([N+](=O)[O-])c(Sc2c(Cl)cncc2Cl)s1 (stereo unspecified) | 4.49 µM | 11.7 µM | – | –
CC(=O)c1nc([N+](=O)[O-])c(Sc2ccc(F)cc2F)s1 | 6.12 µM | 10.2 µM | – | –

Continued, in another order:

IC50 [1] | IC50 (HCT-116) | IC50 (NCI-H1299) | SMILES | IC50 [2]
> 50 µM | > 50 µM | – | CC(=O)c1ncc(Sc2cccc(Cl)c2Cl)s1 | –
6.95 µM | 18.6 µM | – | CC(O)c1nc([N+](=O)[O-])c(Sc2c(Cl)cncc2Cl)s1 (stereo unspecified) | –
4.49 µM | 19.3 µM | – | CC(=O)c1nc([N+](=O)[O-])c(Sc2c(Cl)cccc2Cl)s1 | –
4.21 µM | 13.5 µM | – | O=C(NCc1ccccc1)c1nc([N+](=O)[O-])c(Sc2c(Cl)cncc2Cl)s1 | –
9.93 µM | 9.29 µM | – | CC(=O)c1nc([N+](=O)[O-])c(Sc2cccc(Cl)c2Cl)s1 | –
2.65 µM | 11.2 µM | – | O=C(NCc1ccc(F)cc1)c1nc([N+](=O)[O-])c(Sc2c(Cl)cncc2Cl)s1 | –
26.8 µM | 11.8 µM | – | CC(NCc1ccccc1)c1nc([N+](=O)[O-])c(Sc2c(Cl)cncc2Cl)s1 (stereo unspecified) | –
> 50 µM | 24 µM | – | COc1ccc(Sc2sc(C(C)=O)nc2[N+](=O)[O-])cc1OC | –
3.65 µM | 6.64 µM | – | Cc1ccc(CNC(=O)c2nc([N+](=O)[O-])c(Sc3c(Cl)cncc3Cl)s2)cc1 | –
40.5 µM | 12.4 µM | – | O=C(Nc1ccccc1)c1nc([N+](=O)[O-])c(Sc2c(Cl)cncc2Cl)s1 | –
16.8 µM | 12.5 µM | – | CC(=O)c1nc([N+](=O)[O-])c(Sc2ccc(Cl)cc2Cl)s1 | –
1.35 µM | 6.36 µM | 3.68 µM | O=C(NCc1cccc(F)c1)c1nc([N+](=O)[O-])c(Sc2c(Cl)cncc2Cl)s1 | 6.11 µM
> 50 µM | 17.3 µM | – | COc1cccc(Sc2sc(C(C)=O)nc2[N+](=O)[O-])c1 | –
